# “Also recorded” adds a separate entry of the source. In the oligonucleotide strings, read from the 5' end, every base follows the letter of its sugar. An asterisk marks phosphorothioate; unmarked linkages are phosphodiester. Other units and linkages are bracketed, terminal groups are in braces. A string of capitals states the bases alone. e = 2'-O-(2-methoxyethyl) (MOE); [5mC] = 5-methylcytosine; d = 2'-deoxy (DNA)
# Tested on: mir-21 pri-miRNA
# Experiment: mir-21 pri-miRNA expression in HeLa cells (real-time RT-PCR)
# Assay type: cell-based, human
# Conditions: HeLa cells, 100 nM, real-time RT-PCR
# Description: In one embodiment, the expression of mir-21 (noted to be expressed at high levels in HeLa cells) was assessed in cells treated with oligomeric compounds. Using the transfection methods previously described, HeLa cells were treated with 100 nM of the uniform 2′-MOE oligomeric compound ISIS Number 327917 (SEQ ID NO: 335) targeting the mir-21 mature miRNA. Total RNA was isolated by lysing cells in 1 mL TRIZOL™ (Invitrogen) using the manufacturer's recommended protocols. […] Real-time RT-PCR analysis was also performed on HeLa cells treated with ISIS 327917 using a primer/probe set specific for the mir-21 pri-miRNA molecule [forward primer=ISIS 339332 ([…]; herein incorporated as SEQ ID NO.: 911), reverse primer-ISIS 339333 (TCGACTGGTGTTGCCATGA; herein incorporated as SEQ ID NO.: 912), and probe=ISIS 339334 ([…]; herein incorporated as SEQ ID NO.: 913)]. Total RNA was quantified using RiboGreen™ RNA quantification reagent (Molecular Probes, Inc. Eugene, Oreg.), expression levels observed for the target were normalized to 5.8S rRNA, and values were expressed relative to an untreated control (UTC).
# Using the real-time RT-PCR methods, the expression levels of the mir-21 pri-miRNA were compared in HeLa cells treated with this nested series of uniform 2′-MOE oligomeric compounds, targeting and spanning the entire length of the mir-21 pri-miRNA. ISIS Number 358768 (SEQ ID NO: 918) targets a region flanking the predicted 5′ Drosha cleavage site in the mir-21 pri-miRNA. ISIS Number 358777 (SEQ ID NO: 927) targets a region spanning the 3′ Drosha cleavage site in the mir-21 pri-miRNA. ISIS 358779 (SEQ ID NO: 929) targets a region flanking the predicted 3′ Drosha cleavage site in the mir-21 pri-miRNA. Additionally, oligomeric compounds ISIS 327917 (SEQ ID NO: 335), a uniform 2′-MOE compound targeting the mature mir-21 miRNA, and ISIS 345382 ([…]; SEQ ID NO: 335), a 5-10-7 phosphorothioate 2′-MOE gapmer targeting mir-21, were tested for comparison. Oligomeric compound ISIS 327863 ([…]; herein incorporated as SEQ ID NO: 936), a phosphorothioate 5-10-52′-MOE gapmer, was used as scrambled control. […] Total RNA was isolated by lysing cells in 1 mL TRIZOL™ (Invitrogen) using the manufacturer's recommended protocols. real-time RT-PCR analysis was performed using the primer/probe set specific for the mir-21 pri-miRNA molecule [forward primer=ISIS 339332 (SEQ ID NO.: 911), reverse primer-ISIS 339333 (SEQ ID NO.: 912), and probe=ISIS 339334 (SEQ ID NO.: 913)]. Total RNA was quantified using RiboGreen™ RNA quantification reagent (Molecular Probes, Inc. Eugene, Oreg.), expression levels observed for each target were normalized to 5.8S rRNA, and values were expressed relative to the untreated control (UTC). Effects on expression of the mir-21 pri-miRNA molecule resulting from treatment of HeLa cells with these uniform 2′-MOE oligomeric compounds is expressed as a percentage of RNA levels in untreated control cells.
row,Substance,mir-21 pri-miRNA expression % UTC
1,358765 (eA*e[5mC]*eA*eA*eG*e[5mC]*eA*eG*eA*e[5mC]*eA*eG*eT*e[5mC]*eA*eG*eG*e[5mC]*eA*eG; antisense) [compound 358765],133 % UTC
2,358775 (antisense eA*e[5mC]*eA*eG*e[5mC]*e[5mC]*e[5mC]*eA*eT*e[5mC]*eG*eA*e[5mC]*eT*eG*eG*eT*eG*eT*eT) [compound 358775],222 % UTC
3,358773 (e[5mC]*eT*eG*eG*eT*eG*eT*eT*eG*e[5mC]*e[5mC]*eA*eT*eG*eA*eG*eA*eT*eT*e[5mC]; antisense) [compound 358773],148 % UTC
4,358782 (antisense eA*eA*e[5mC]*eA*eA*eT*eG*eA*eT*eG*e[5mC]*eT*eG*eG*eG*eT*eA*eA*eT*eG) [compound 358782],155 % UTC
5,358784 (antisense e[5mC]*eG*eA*e[5mC]*eA*eA*eG*eG*eT*eG*eG*eT*eA*e[5mC]*eA*eG*e[5mC]*e[5mC]*eA*eT) [compound 358784],358 % UTC
6,"327863 (antisense ACGCTAGCCTAATAGCGAGG; sugars from the 5' end e5 d10 e5, all phosphorothioate, methylation of C not given here) [compound 327863]",107 % UTC
7,358777 (antisense e[5mC]*e[5mC]*eA*eA*eA*eA*eT*eG*eT*e[5mC]*eA*eG*eA*e[5mC]*eA*eG*e[5mC]*e[5mC]*e[5mC]*eA) [compound 358777],536 % UTC
8,358780 (antisense eA*eA*e[5mC]*eA*eT*eT*eG*eG*eA*eT*eA*eT*eG*eG*eA*eT*eG*eG*eT*e[5mC]) [compound 358780],269 % UTC
9,358766 (eG*eG*eT*eA*eG*eG*e[5mC]*eA*eA*eA*eA*e[5mC]*eA*eA*eG*e[5mC]*eA*eG*eA*e[5mC]; antisense) [compound 358766],142 % UTC
10,358767 (eG*eG*eA*eG*eA*eT*eG*eT*e[5mC]*eA*e[5mC]*eG*eA*eT*eG*eG*eT*eA*eG*eG; antisense) [compound 358767],248 % UTC
11,358771 (e[5mC]*eA*eA*e[5mC]*eA*eG*eT*e[5mC]*eA*eA*e[5mC]*eA*eT*e[5mC]*eA*eG*eT*e[5mC]*eT*eG; antisense) [compound 358771],181 % UTC
12,358779 (antisense eG*eG*eT*e[5mC]*eA*eG*eA*eT*eG*eA*eA*eA*eG*eA*eT*eA*e[5mC]*e[5mC]*eA*eA) [compound 358779],646 % UTC
13,358772 (eG*eA*eG*eA*eT*eT*e[5mC]*eA*eA*e[5mC]*eA*eG*eT*e[5mC]*eA*eA*e[5mC]*eA*eT*e[5mC]; antisense) [compound 358772],245 % UTC
14,358774 (antisense e[5mC]*eA*eT*e[5mC]*eG*eA*e[5mC]*eT*eG*eG*eT*eG*eT*eT*eG*e[5mC]*e[5mC]*eA*eT*eG) [compound 358774],104 % UTC
15,358783 (antisense eG*eA*eG*eT*eT*eT*e[5mC]*eT*eG*eA*eT*eT*eA*eT*eA*eA*eA*e[5mC]*eA*eA) [compound 358783],133 % UTC
16,358781 (antisense eT*eA*eA*eT*eG*eT*eT*eT*eA*eA*eA*eT*eG*eA*eG*eA*eA*e[5mC]*eA*eT) [compound 358781],122 % UTC

# Same assay, conditions: HeLa, 100 nM
row,Substance,levels of the mir-21 pri-miRNA molecule
1,ISIS 358775: uniform 2′-MOE PS; targets mir-21 pri-miRNA (antisense eA*e[5mC]*eA*eG*e[5mC]*e[5mC]*e[5mC]*eA*eT*e[5mC]*eG*eA*e[5mC]*eT*eG*eG*eT*eG*eT*eT),stimulate an increase in levels of the mir-21 pri-miRNA molecule
2,ISIS 358777: uniform 2′-MOE PS; SEQ ID NO: 927; region spanning 3′ Drosha cleavage site of mir-21 pri-miRNA (antisense e[5mC]*e[5mC]*eA*eA*eA*eA*eT*eG*eT*e[5mC]*eA*eG*eA*e[5mC]*eA*eG*e[5mC]*e[5mC]*e[5mC]*eA) [uniform 2′-MOE PS; region spanning 3′ Drosha cleavage site of mir-21 pri-miRNA],stimulate an increase in levels of the mir-21 pri-miRNA molecule; also recorded: stimulate the greatest increases in expression of the mir-21 pri-miRNA
3,ISIS 358769: uniform 2′-MOE PS; targets mir-21 pri-miRNA (antisense eG*eA*eT*eA*eA*eG*e[5mC]*eT*eA*e[5mC]*e[5mC]*e[5mC]*eG*eA*e[5mC]*eA*eA*eG*eG*eT),stimulate an increase in levels of the mir-21 pri-miRNA molecule
4,ISIS 358784: uniform 2′-MOE PS; targets mir-21 pri-miRNA (antisense e[5mC]*eG*eA*e[5mC]*eA*eA*eG*eG*eT*eG*eG*eT*eA*e[5mC]*eA*eG*e[5mC]*e[5mC]*eA*eT),stimulate an increase in levels of the mir-21 pri-miRNA molecule
5,ISIS 358779: uniform 2′-MOE PS; SEQ ID NO: 929; region flanking 3′ Drosha cleavage site of mir-21 pri-miRNA (antisense eG*eG*eT*e[5mC]*eA*eG*eA*eT*eG*eA*eA*eA*eG*eA*eT*eA*e[5mC]*e[5mC]*eA*eA) [uniform 2′-MOE PS; region flanking 3′ Drosha cleavage site of mir-21 pri-miRNA],stimulate an increase in levels of the mir-21 pri-miRNA molecule; also recorded: stimulate the greatest increases in expression of the mir-21 pri-miRNA
6,ISIS 358770: uniform 2′-MOE PS; targets mir-21 pri-miRNA (antisense eA*eG*eT*e[5mC]*eT*eG*eA*eT*eA*eA*eG*e[5mC]*eT*eA*e[5mC]*e[5mC]*e[5mC]*eG*eA*e[5mC]),stimulate an increase in levels of the mir-21 pri-miRNA molecule
7,ISIS 358785: uniform 2′-MOE PS; targets mir-21 pri-miRNA (antisense eG*eA*eA*eA*eG*eA*eT*eA*e[5mC]*e[5mC]*eA*eA*eA*eA*eT*eG*eT*e[5mC]*eA*eG),stimulate an increase in levels of the mir-21 pri-miRNA molecule
8,ISIS 358767: uniform 2′-MOE PS; targets mir-21 pri-miRNA (antisense eG*eG*eA*eG*eA*eT*eG*eT*e[5mC]*eA*e[5mC]*eG*eA*eT*eG*eG*eT*eA*eG*eG),stimulate an increase in levels of the mir-21 pri-miRNA molecule
9,ISIS 358778: uniform 2′-MOE PS; targets mir-21 pri-miRNA (antisense eG*eA*eT*eA*e[5mC]*e[5mC]*eA*eA*eA*eA*eT*eG*eT*e[5mC]*eA*eG*eA*e[5mC]*eA*eG),stimulate an increase in levels of the mir-21 pri-miRNA molecule
10,ISIS 358780: uniform 2′-MOE PS; targets mir-21 pri-miRNA (antisense eA*eA*e[5mC]*eA*eT*eT*eG*eG*eA*eT*eA*eT*eG*eG*eA*eT*eG*eG*eT*e[5mC]),stimulate an increase in levels of the mir-21 pri-miRNA molecule
11,ISIS 358772: uniform 2′-MOE PS; targets mir-21 pri-miRNA (antisense eG*eA*eG*eA*eT*eT*e[5mC]*eA*eA*e[5mC]*eA*eG*eT*e[5mC]*eA*eA*e[5mC]*eA*eT*e[5mC]),stimulate an increase in levels of the mir-21 pri-miRNA molecule

# Same assay, conditions: HeLa, 25, 50, 100 and 200 nM
row,Substance,"mir-21 pri-miRNA levels, dose response"
1,ISIS 358779: uniform 2′-MOE PS; SEQ ID NO: 929; region flanking 3′ Drosha cleavage site of mir-21 pri-miRNA (antisense eG*eG*eT*e[5mC]*eA*eG*eA*eT*eG*eA*eA*eA*eG*eA*eT*eA*e[5mC]*e[5mC]*eA*eA) [uniform 2′-MOE PS; region flanking 3′ Drosha cleavage site of mir-21 pri-miRNA],dose-responsive induction of mir-21 pri-miRNA levels

# — patent US8178506B2, “Oligomeric compounds and compositions for use in modulation of small non-coding RNAs” (Regulus Therapeutics Inc., priority 2003, dated 2012)
